Measured values: publication PMC9918429, “ATX-101, a cell-penetrating protein targeting PCNA, can be safely administered as intravenous infusion in patients and shows clinical activity in a Phase 1 study” (Oncogene, 2022)
Entries after “also recorded” stand apart in the source; their conditions may differ. Ends that are not written are not given here.

Columns and labels:
[1] = tested on: patients with advanced solid tumors; assay: Phase 1 first-in-human study, weekly intravenous ATX-101 infusion: adverse events, DLT, infusion-related reactions (CTCAE v4.03); type: in vivo
Protocol: Here we report results of the ATX-101 first-in-human study in patients with advanced solid tumors. This open-label, single arm Phase 1 study, consisting of two sub-studies, investigated 4 doses of ATX-101 (20, 30, 45, and 60 mg/m^2) administered intravenously every week. In a first, dose-escalation study pre-defined dose-limiting toxicities and PK were assessed (for DLT definition see Supplementary Table 1). If, after 6 weeks, no tumor progression was measured, treatment could be continued in a second, long-term follow-up study until disease progression or unacceptable toxicity with the primary objective safety/tolerability. Efficacy was a secondary endpoint in both sub-studies. The studies were registered in the Australian New Zealand Clinical Trials Registry (ANZCTR) under the following IDs: 375262 and 375319. Details on methods are given in the Supplementary information.
This Phase 1, open-label, single arm, first-in-human study consisted of two sub-studies. Study ATX101-01 was a dose escalation study in accordance with the traditional 3+3 escalation design^1. Patients were treated over 6 weeks when the first tumor assessment was done. In case of disease stabilization or tumor response, patients could continue treatment in the long-term follow-up study ATX101-02. The data analysis has been combined for both studies.
ATX-101 was administered weekly as intravenous infusion.
Due to the occurrence of infusion related reactions (IRR) in the first patient, a premedication was implemented for subsequent patients. Premedication was optimized by the Safety Monitoring Committee (SMC) during the study resulting in the final recommendation to administer corticosteroids, paracetamol, H1 and H2 inhibitors. This medication became standard practice in Cohort 3. Montelukast (anti-leukotriene) was added in Cohort 4. In addition, on each infusion day, the infusion rate had to be increased in 5 steps from 5 mg/h to a maximum of 120 mg/h.
ATX-101 was administered in 4 dosing cohorts. The starting dose was 20 mg/m², escalated to 30 mg/m², 45 mg/m² and 60 mg/m². An SMC, comprising all principal investigators and medical monitors of sponsor and CRO, recommended dose changes and modifications after the end of each completed cohort and during the entire study.
Toxicities were graded as mild, moderate, severe, life threatening or related to death using the Common Terminology Criteria for Adverse Events (CTCAE) Version 4.03. Safety assessments included the incidence of dose limiting toxicities (DLTs), treatment-emergent adverse events (TEAE), laboratory parameters, ECG, performance status, physical examinations. DLT were defined upfront, the DLT period included the first three treatment weeks.

advanced solid tumors = assay: Tumor assessment by investigators according to RECIST V1.1; type: in vivo, human
Protocol: Tumors were assessed by investigators according to RECIST V1.1 at baseline, after 6 weeks and every 3 months thereafter. Efficacy Population: patients with at least one tumor assessment (RECIST) after treatment start

[2] = Full-length peptide in cell culture media after peptide addition; type: in vitro ADME; details: cell cultures, 1–2 h after the peptide addition; unpublished data
cell cultures = details: cited from earlier work
[3] = Plasma pharmacokinetics of ATX-101 on first infusion day, non-compartmental (Phoenix WinNonlin); details: for tmax Median [Min;Max]: from infusion start
Protocol: Blood samples for a complete pharmacokinetic (PK) profile were collected on the first infusion day. On days 8, 15, and 36 samples were collected during the infusion only. Plasma trough levels were assessed on Days 3 and Day 43.
Primary PK Population: patients with at least 2 measurable plasma concentration time points after the end of infusion on D1

[4] = 30 mg/m^2 i.v. infusion, first infusion day, plasma, primary PK population, n = 1
[5] = 45 mg/m^2 i.v. infusion, first infusion day, plasma, primary PK population, mean (SD), n = 4
[6] = 60 mg/m^2 i.v. infusion, first infusion day, plasma, primary PK population, mean (SD), n = 6
[7] = 60 mg/m^2 i.v. infusion, first infusion day, plasma, primary PK population, mean (SD), n = 8

Ac-MDRWLVKWKKKRKIRRRRRRRRRRR (N-terminus assumed) [ATX-101]
TEAE: Upper respiratory tract infection ([1]; Overall (n=25), Any Grade): 3 (12.0) n (%) | TEAE: Abdominal pain upper ([1]; Overall (n=25), Grade 3): 1 (4.0) n (%) | TEAE: Anemia ([1]; Overall (n=25), Grade 3): 4 (16.0) n (%) | TEAE: Fatigue ([1]; Overall (n=25), Grade 3): 1 (4.0) n (%) | TEAE: Hyperglycemia ([1]; Overall (n=25), Grade 3): 2 (8.0) n (%) | TEAE: Patients with at least one event ([1]; Overall (n=25), Grade 3): 15 (60.0) n (%) | Patients with infusion-related reactions (mild and moderate) ([1]; all 25 patients, 20-60 mg/m^2 weekly, despite premedication and stepwise infusion rate): 64% | TEAE of CTCAE grade 4/5 ([1]; all cohorts (n=25)): CTCAEs grade 4/5 were not observed | Maximum tolerated dose ([1]; doses up to 60 mg/m^2 weekly): not reached | Dose-limiting toxicities (DLT) ([1]; in vivo): not observed | IRR Grade 1 (mild), number of patients with IRR ([1]; in vivo): 9 (36.0) n (%) | IRR Grade 1 (mild), total number of IRRs ([1]; in vivo): 17 N | IRR Grade 2 (moderate), number of patients with IRR ([1]; in vivo): 13 (52.0) n (%) | IRR Grade 2 (moderate), total number of IRRs ([1]; in vivo): 45 N | IRR any grade, total number of IRRs ([1]; in vivo): 62 N | IRR: Patients with at least one event, number of patients with IRR ([1]; in vivo): 16 (64.0) n (%) | Patients with IRR in whom IRR was seen on the first infusion day ([1]; in vivo): 83% | TEAE: Abdominal pain upper ([1]; in vivo): 3 (12.0) n (%) | TEAE: Anemia ([1]; in vivo): 8 (32.0) n (%) | TEAE: Diarrhea ([1]; in vivo): 7 (28.0) n (%) | TEAE: Dysgeusia ([1]; in vivo): 3 (12.0) n (%) | TEAE: Erythema ([1]; in vivo): 3 (12.0) n (%) | TEAE: Fatigue ([1]; in vivo): 12 (48.0) n (%) | TEAE: Headache ([1]; in vivo): 3 (12.0) n (%) | TEAE: Hyperglycemia ([1]; in vivo): 3 (12.0) n (%) | TEAE: Infusion related reactions ([1]; in vivo): 16 (64.0) n (%) | TEAE: Insomnia ([1]; in vivo): 3 (12.0) n (%) | TEAE: Nausea ([1]; in vivo): 4 (16.0) n (%) | TEAE: Patients with at least one event ([1]; in vivo): 25 (100.0) n (%) | TEAE: Pyrexia ([1]; in vivo): 4 (16.0) n (%) | TEAE: Vascular access site bruising ([1]; in vivo): 3 (12.0) n (%) | Treatment-related TEAE: Anemia ([1]; in vivo): 2 (8.0) n (%) | Treatment-related TEAE: Diarrhea ([1]; in vivo): 4 (16.0) n (%) | Treatment-related TEAE: Dysgeusia ([1]; in vivo): 3 (12.0) n (%) | Treatment-related TEAE: Erythema ([1]; in vivo): 2 (8.0) n (%) | Treatment-related TEAE: Fatigue ([1]; in vivo): 8 (32.0) n (%) | Treatment-related TEAE: Flushing ([1]; in vivo): 2 (8.0) n (%) | Treatment-related TEAE: Hyperglycemia ([1]; in vivo): 2 (8.0) n (%) | Treatment-related TEAE: Infusion-related reactions ([1]; in vivo): 16 (64.0) n (%) | Treatment-related TEAE: Patients with at least 1 event ([1]; in vivo): 23 (92.0) n (%) | Treatment-related adverse events of grade 3 ([1]; in vivo): one grade 3 adverse event | Vital signs, ECG, and laboratory values ([1]; in vivo): didn’t show a trend of changes | Recommended phase 2 dose (RP2D), monotherapy ([1]; in vivo, iv): 60 mg/m^2 | Median time to treatment discontinuation (advanced solid tumors; 12 patients of long-term follow-up study, range [7–74]): 18 weeks | Stable disease at the end of the dose escalation study (advanced solid tumors; Efficacy Population (n = 20), after 6 weeks, RECIST V1.1): 70% | Disease stabilization over at least 4.1 months (advanced solid tumors; Efficacy Population, Cohort 1 (20 mg/m^2)): 50% | Disease stabilization over at least 4.1 months (advanced solid tumors; Efficacy Population, Cohort 2 (30 mg/m^2)): 33.3% | Disease stabilization over at least 4.1 months (advanced solid tumors; Efficacy Population, Cohort 3 (45 mg/m^2)): 50% | Disease stabilization over at least 4.1 months (advanced solid tumors; Efficacy Population, Cohort 4 (60 mg/m^2)): 33.3% | Partial or complete tumor responses (advanced solid tumors; Efficacy Population, RECIST V1.1): No tumor responses were observed; also recorded: No partial or complete responses were observed | Stable disease at treatment discontinuation (advanced solid tumors; long-term follow-up, 5 of 12 patients): 41.7% | Progressive disease at treatment discontinuation (advanced solid tumors; long-term follow-up, 7 of 12 patients): 58.3% | Full-length peptide in the culture media [2]: no full-length peptide was found | Duration of activity (inhibition of growth, increased apoptosis) after addition of the peptide (cell cultures): up to five days | tmax Median [Min;Max] ([3]; 20 mg/m^2 i.v. infusion, first infusion day, plasma, primary PK population, n = 1): 2.02 [N/A] h | tmax Median [Min;Max] [3, 4]: 2.98 [N/A] h | CL [3, 4]: 14,400 mL/h/m^2 | Vz [3, 4]: 7970 mL/m^2 | kel [3, 4]: 1.81 h⁻¹ | tmax Median [Min;Max] ([3]; 45 mg/m^2 i.v. infusion, first infusion day, plasma, primary PK population, median [min;max], n = 4): 2.37 [1.32;2.82] h | AUC0-t [3, 5]: 1980 (427) h × ng/mL | AUC(0-inf) [3, 5]: 2200 (591) h × ng/mL | CL [3, 5]: 21,500 (6120) mL/h/m^2 | Cmax [3, 5]: 1150 (166) ng/mL | Vz [3, 5]: 13,100 (6830) mL/m^2 | kel [3, 5]: 2.25 (1.57) /h | tmax Median [Min;Max] ([3]; 60 mg/m^2 i.v. infusion, first infusion day, plasma, primary PK population, median [min;max], n = 8): 4.75 [1.60;9.12] h | CL [3, 6]: 17,800 (5880) mL/h/m^2 | MRT0-inf [3, 6]: 1.54 (0.66) h | Vz [3, 6]: 12,900 (5520) mL/m^2 | kel [3, 6]: 1.51 (0.46) /h | AUC0-t [3, 7]: 3320 (1260) h × ng/mL | Cmax [3, 7]: 1320 (815) ng/mL | Elimination half-life in blood ([3]; all dose levels (20, 30, 45, 60 mg/m^2)): less than 30 min | AUC0-t ([3]; human, plasma, iv, 20 mg/m2): 666 ng·h/mL | Cmax ([3]; human, plasma, iv, 20 mg/m2): 468 ng/mL | AUC0-t ([3]; human, plasma, iv, 30 mg/m2): 1900 ng·h/mL | AUC(0-inf) ([3]; human, plasma, iv, 30 mg/m2): 2080 ng·h/mL | Cmax ([3]; human, plasma, iv, 30 mg/m2): 720 ng/mL | MRT ([3]; human, plasma, iv, 30 mg/m2): 36.7 min | MRT ([3]; human, plasma, iv, 45 mg/m2): 53.3 min | AUC(0-inf) ([3]; human, plasma, iv, 60 mg/m2): 3700 ng·h/mL
